Results reported in patent publication US20100291592A1, “NOVEL MARKER FOR SENSITIVITY AGAINST SULFONAMIDE COMPOUND” (priority 2006, published 2010).

How the values were obtained:
[1] = tested on: EGFR1; test: EGFR1 expression level in WiDr subcutaneous transplant model (western blotting); assay type: in vivo, nude mouse; conditions: for EGFR1 expression level (% of control) WiDr: WiDr tumor in nude mouse
Method: HCT116 or WiDr was cultured in RPMI1640 (containing 10% FBS) in a 5% carbon dioxide incubator to about 80% confluence. The cells were collected with trypsin-EDTA according to a routine procedure and 5×10^7 cells/mL suspensions were prepared with a phosphate buffer. Then, 0.1 mL each of the resulting suspension was subcutaneously transplanted to the side of a nude mouse.
For HCT116, 23 days after the transplantation, E7820 was orally administered for 12.5 mg/kg, 50 mg/kg or 200 mg/kg twice a day for 3 days. On the other hand, for WiDr, 18 days after the transplantation, E7820 was orally administered for 50 mg/kg or 200 mg/kg twice a day for 7 days. Four days after the start of administration for HCT116 and 8 days after the start of administration for WiDr, tumors were removed to prepare tumor cell lysates with various protease inhibitors and a cell lysis solution containing 10% glycerol and 1% Triton X-100 in ice. For each tumor cell lysate, an equal amount of protein was fractionated by SDS-PAGE and transferred onto a nitrocellulose membrane (Hybond ECL, Amersham Biosciences). Then, western blotting was performed by using an anti-EGFR1 antibody (Santa Cruz Biotechnology) and horse radish peroxidase-labeled anti-mouse IgG antibody (secondary antibody) (Cell Signaling) according to a routine procedure.
Detection and quantification of each band were carried out as follows. First, each band was forced to chemically develop a color with Chemiluminescent Substrate (PIERCE), which was then captured as a digital image with Image Master VDS-CL (Amersham Pharmacia Biotech, Tokyo). The digital images were saved as TIF files and numerically converted with Image Master total Lab (version 1.00, Amersham Pharmacia Biotech, Tokyo).

[2] = tested on: human non-small cell lung cancer cell line (PC9); test: Anti-tumor effect on subcutaneous transplant model of PC9; assay type: in vivo, nude mouse; conditions: PC9 subcutaneous transplant, 50, 100 or 200 mg/kg orally twice a day for 14 days
Method: (§1) Human non-small-cell lung cancer cell line PC9 (obtained from Immuno-Biological laboratories Co., Ltd.), human non-small-cell lung cancer cell line A549 (obtained from Dainippon Pharmaceutical), human colon cancer cell line WiDr (obtained from Dainippon Pharmaceutical) and human colon cancer cell line HCT116 (obtained from ATCC) were cultured in RPMI1640 (containing 10% FBS) in a 5% carbon dioxide incubator at 37° C. to about 80% confluence, and the cells were collected with trypsin-EDTA. Using a phosphate buffer for PC9, WiDr and HCT116 and a 50% matrigel-containing phosphate buffer for A549, 5×10^7 cells/mL suspensions were prepared, respectively. Then, 0.1 mL each of the resulting cell suspensions was subcutaneously transplanted to the side of a nude mouse.
(§2) For PC9, 8 days after the transplantation, E7820 was orally administered for 50 mg/kg, 100 mg/kg or 200 mg/kg twice a day for 14 days. For A549, 24 days after the transplantation, E7820 was orally administered for 50 mg/kg or 200 mg/kg twice a day for 7 days. For WiDr, 11 days after the transplantation, E7820 was orally administered for 50 mg/kg, 100 mg/kg or 200 mg/kg twice a day for 14 days. […]
(§3) The major and minor axes of tumors were measured with Digimatic caliper (Mitsutoyo), and tumor volumes and relative tumor volumes were calculated according to the following formulae. […]

[3] = tested on: EGFR1; test: EGFR1 expression level in PC9 subcutaneous transplant model (immunohistochemical staining); assay type: in vivo; conditions: PC9 tumors in nude mice, 25, 50, 100 or 200 mg/kg orally twice a day for 7 days, versus unadministered group
Method: PC9 was cultured in RPMI1640 (containing 10% FBS) in a 5% carbon dioxide incubator at 37° C. The cultured human tumor cells (PC9) (8×10^6 cells/mouse) were subcutaneously transplanted into nude mice (KSN mice from SLC). Once proliferation of the tumors transplanted into the mice was observed, E7820 was orally administered to the mice for 0 mg/kg (unadministered), 25 mg/kg, 50 mg/kg, 100 mg/kg or 200 mg/kg twice a day for 7 days. Following 7 days of administration, tumor tissues were removed from the mice, fixed with formalin and embedded in paraffin. Subsequently, the paraffin-embedded tumor tissues were sliced into a thickness of 6 μm, placed on glass slides and deparaffinized with xylene/ethanol. Then, these sections were treated with […] (Roche), and subjected to immunostaining according to the protocol of Simple Stain kit: mouse MAX-PO (M) (NICHIREI) using an anti-EGFR antibody (DakoCytomation). Referring to FIG. 5, (a) to (f) show stain with control IgG (negative control), E7820-unadministered group, E7820-administered group (25 mg/kg), E7820-administered group (50 mg/kg), E7820-administered group (100 mg/kg) and E7820-administered group (200 mg/kg), respectively. Each panel was enlarged twenty times. […] This proves that E7820 also exerts an anti-tumor effect at tissue level by decreasing the EGFR1 expression level. […]

[4] = tested on: human non-small cell lung cancer cell line (A549); test: Anti-tumor effect on subcutaneous transplant model of A549; assay type: in vivo, nude mouse; conditions: 50 or 200 mg/kg orally twice a day for 7 days
Method: as §1, §2, §3

Cc1ccc(NS(=O)(=O)c2cccc(C#N)c2)c2[nH]cc(C#N)c12 [E7820, N-(3-cyano-4-methyl-1H-indole-7-yl)-3-cyanobenzenesulfonamide]
Effect on EGFR1 expression level (in words) ([1]; WiDr transplanted tumors): did not change the EGFR1 expression level | EGFR1 expression level (% of control) WiDr ([1]; 50 mg/kg orally twice a day for 7 days): 117 % of control | EGFR1 expression level (% of control) WiDr ([1]; 200 mg/kg orally twice a day for 7 days): 121 % of control | Anti-tumor effect (relative tumor volume) [2]: stronger anti-tumor effects | Effect on EGFR1 expression level (immunohistochemical staining, in words) [3]: decrease in the EGFR1 expression level was significant | Anti-tumor effect (relative tumor volume) [4]: showed anti-tumor effects
